Laboratory results taken from PubChem BioAssay (NCI).
Where “and” joins values, the source holds several entries; their conditions need not be identical. Identical values can stand only once.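 Growth conditions: 96-well plates. Treatment: test compound, 48 hours, 5 concentrations. Analysis: linear interpolation between bracketing concentrations; unreached endpoints set to highest concentration. GI50 is the concentration that inhibits growth by half. Definition used: TGI = concentration required for complete inhibition of growth.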

system: MDA-MB-231 breast; assay: inhibition of tumour cell growth, NCI panel, 48 h

Compound	TGI [µM]	GI50 [µM]
COc1cc(S(=O)(=O)Nc2nc(-c3ccc(N4C(=O)C(CC(=O)O)SC4c4cccs4)cc3)cs2)ccc1Cl (centres undefined)	> 100	–
O=[N+]([O-])c1ccc(Cl)cc1N/N=C/c1ccnc2ccccc12	> 100	–
Oc1[nH]c2ccccc2c1N=Nc1nc(-c2ccc(Br)cc2)cs1	62.5	–
C#CCn1c(=O)c2ccccc2n(CC#C)c1=O	> 10	–
O=C1CCC2(c3ccc(Cl)cc3)Nc3ccncc3N12 (centres undefined)	> 10	–
Oc1ccc(Cc2cc(Cc3ccc(O)cc3)cc(Cc3ccc(O)cc3)c2)cc1	> 50	–
CC1CN(C)c2ccccc2N=C1NN (centres undefined)	> 100	–
O=C(c1ccccn1)C1(N2CCCCC2)CCCCC1	> 100	–
COc1ccc(CN2C(=O)/C(=C\c3cc(OC)c(OC)c(OC)c3)c3ccccc32)cc1	> 100	3.34
N[C@@H](CCC(=O)NCP(=O)(O)O)C(=O)O	> 100	–
CCOP(=O)(OCC)C(F)(F)c1ccc(CC(NC(=O)OC(C)(C)C)C(=O)O)cc1 (centres undefined)	> 10	–
NC(=O)C(=Cn1c(=S)[nH]c2ccc([N+](=O)[O-])cc21)C(N)=O	> 100	–
O=C(C1OC1c1ccc(Br)cc1O)C12CC3CC(CC(C3)C1)C2 (centres undefined)	43.6	–
S=C(N/N=C(/c1ccccc1)c1ccccn1)N(Cc1ccccn1)Cc1ccccn1	2.72	–
O=C(NCc1ccccc1)c1n[nH][nH]c1=O	> 100	–

system: OVCAR-3 ovarian; assay: inhibition of tumour cell growth, NCI panel, 48 h

Compound	TGI	GI50 [µM]
COc1cccc(Nc2nc(-c3cccs3)nc3cc(OC)c(OC)cc23)c1	51.1 µM	–
Nn1c(-c2ccccc2)n[nH]c1=O	> 100 µM	–
COc1ccc2[nH]cc(/C=C(/C)c3ccncc3)c2c1	> 100 µM	4.16
C=CC1(CC/C(=C\[N+](=O)[O-])c2ccc(OC)c(OC)c2)OCC(C)(C)CO1	39.8 µM	–
Cc1cc(C)nc(NS(=O)(=O)c2ccc(NC(=O)c3ccc4nc5ccccc5c(Nc5ccc(S(N)(=O)=O)cc5)c4c3)cc2)n1	> 100 µM	–
Nc1c(-c2ccc(Cl)c(Cl)c2)c2ccc([N+](=O)[O-])cc2c(=O)n1-c1nc2ccccc2s1	> 100 µM	–
CC1(C(=O)O)CCC2(C)CCC3(C)C(=CC(=O)C4C5(C)CCC(O)C(C)(C)C5CCC43C)C2C1 (centres undefined)	37.4 µM	–
COC(=O)[C@@H](O)[C@](O)(CCC(C)C)C(=O)O[C@@H]1C(OC)=C[C@]23CCCN2CCc2cc4c(cc2[C@H]13)OCO4	7.15 µM	–
COC(=O)c1c(C)nc2c1cc(O)c1[nH]c(C)c(C)nc12	> 100 µM	–
Cn1c2ccc3cc2c(=S)c2cc(ccc21)OCCOCCOCCOCCOCCOCCO3	> 10 µM	–
COc1cc(S(=O)(=O)Nc2nc(-c3ccc(N4C(=O)C(CC(=O)O)SC4c4cccs4)cc3)cs2)ccc1Cl (centres undefined)	> 100 µM	–
CC(=O)N1C(C(=O)NC2CCCCC2)CSC1c1ccccc1 (centres undefined)	> 100 µM	–
CC1(C)O[C@H]2OC(CO[Si](C)(C)C(C)(C)C)C(N=[N+]=[N-])[C@H]2O1 (some centres undefined)	38.1 µM	–
O=[N+]([O-])c1ccc(Cl)cc1N/N=C/c1ccnc2ccccc12	> 100 µM	–
Oc1[nH]c2ccccc2c1N=Nc1nc(-c2ccc(Br)cc2)cs1	67.7 µM	–
COc1ccc2cc1Oc1ccc(cc1)C[C@H]1c3cc(c(OC)cc3CCN1C)Oc1c(O)c(OC)cc3c1[C@H](C2)N(C)CC3	46.8 µM	–
C#CCn1c(=O)c2ccccc2n(CC#C)c1=O	> 10 µM	–

Compound	TGI	GI50 [µM]
O=C1CCC2(c3ccc(Cl)cc3)Nc3ccncc3N12 (centres undefined)	> 10 µM	–
Oc1ccc(Cc2cc(Cc3ccc(O)cc3)cc(Cc3ccc(O)cc3)c2)cc1	> 50 µM	–
Nc1ncnc2c1[nH]c(=O)n2-c1ccccc1	> 100 µM	–
CC1CN(C)c2ccccc2N=C1NN (centres undefined)	> 100 µM	–
O=C(c1ccccn1)C1(N2CCCCC2)CCCCC1	> 100 µM	–
COc1ccc(CN2C(=O)/C(=C\c3cc(OC)c(OC)c(OC)c3)c3ccccc32)cc1	3.22 µM	1.62
Cc1ccc(NC(=O)CC2Sc3ccccc3NC2=O)cc1C (centres undefined)	> 100 µM	–
N[C@@H](CCC(=O)NCP(=O)(O)O)C(=O)O	> 100 µM	–
CCOP(=O)(OCC)C(F)(F)c1ccc(CC(NC(=O)OC(C)(C)C)C(=O)O)cc1 (centres undefined)	> 10 µM	–
NC(=O)C(=Cn1c(=S)[nH]c2ccc([N+](=O)[O-])cc21)C(N)=O	> 100 µM	–
O=C(C1OC1c1ccc(Br)cc1O)C12CC3CC(CC(C3)C1)C2 (centres undefined)	84.6 µM	–
O=C1C=C[C@@H](COC2OC(CO)C(O)C(O)C2O)O1 (some centres undefined)	22.4 µM and 31.5 µM	10.6
S=C(N/N=C(/c1ccccc1)c1ccccn1)N(Cc1ccccn1)Cc1ccccn1	1.71 µM	–
O=C(OCc1ccccc1)N1CCNCCN(C(=O)OCc2ccccc2)CCNCC1	> 100 µM	–
O=C(Cc1ccc(O)c(O)c1)NCc1c[nH]c2ccccc12	> 100 µM	–
O=C(NCc1ccccc1)c1n[nH][nH]c1=O	> 100 µM	–

system: OVCAR-5 ovarian; assay: inhibition of tumour cell growth, NCI panel, 48 h

Compound	TGI	GI50 [µM]
COc1cccc(Nc2nc(-c3cccs3)nc3cc(OC)c(OC)cc23)c1	> 100 µM	–
Nn1c(-c2ccccc2)n[nH]c1=O	> 100 µM	–
COc1ccc2[nH]cc(/C=C(/C)c3ccncc3)c2c1	41.5 µM and > 100 µM	11.6
C=CC1(CC/C(=C\[N+](=O)[O-])c2ccc(OC)c(OC)c2)OCC(C)(C)CO1	35.2 µM	–
Cc1cc(C)nc(NS(=O)(=O)c2ccc(NC(=O)c3ccc4nc5ccccc5c(Nc5ccc(S(N)(=O)=O)cc5)c4c3)cc2)n1	> 100 µM	–
Nc1c(-c2ccc(Cl)c(Cl)c2)c2ccc([N+](=O)[O-])cc2c(=O)n1-c1nc2ccccc2s1	> 74.2 µM	–
CC1(C(=O)O)CCC2(C)CCC3(C)C(=CC(=O)C4C5(C)CCC(O)C(C)(C)C5CCC43C)C2C1 (centres undefined)	82.9 µM	–
COC(=O)[C@@H](O)[C@](O)(CCC(C)C)C(=O)O[C@@H]1C(OC)=C[C@]23CCCN2CCc2cc4c(cc2[C@H]13)OCO4	15.2 µM	–
COC(=O)c1c(C)nc2c1cc(O)c1[nH]c(C)c(C)nc12	> 100 µM	–
Cn1c2ccc3cc2c(=S)c2cc(ccc21)OCCOCCOCCOCCOCCOCCO3	> 10 µM	–
COc1cc(S(=O)(=O)Nc2nc(-c3ccc(N4C(=O)C(CC(=O)O)SC4c4cccs4)cc3)cs2)ccc1Cl (centres undefined)	> 100 µM	–
CC(=O)N1C(C(=O)NC2CCCCC2)CSC1c1ccccc1 (centres undefined)	> 100 µM	–
CC1(C)O[C@H]2OC(CO[Si](C)(C)C(C)(C)C)C(N=[N+]=[N-])[C@H]2O1 (some centres undefined)	35.2 µM	–
Oc1[nH]c2ccccc2c1N=Nc1nc(-c2ccc(Br)cc2)cs1	> 100 µM	–
COc1ccc2cc1Oc1ccc(cc1)C[C@H]1c3cc(c(OC)cc3CCN1C)Oc1c(O)c(OC)cc3c1[C@H](C2)N(C)CC3	99.6 µM	–
C#CCn1c(=O)c2ccccc2n(CC#C)c1=O	> 10 µM	–
O=C1CCC2(c3ccc(Cl)cc3)Nc3ccncc3N12 (centres undefined)	> 10 µM	–
Oc1ccc(Cc2cc(Cc3ccc(O)cc3)cc(Cc3ccc(O)cc3)c2)cc1	> 50 µM	–
Nc1ncnc2c1[nH]c(=O)n2-c1ccccc1	> 100 µM	–
CC1CN(C)c2ccccc2N=C1NN (centres undefined)	> 100 µM	–
O=C(c1ccccn1)C1(N2CCCCC2)CCCCC1	> 100 µM	–
